Laboratory results published in paper PMC7395176, “Retromer stabilization results in neuroprotection in a model of Amyotrophic Lateral Sclerosis” (Nature Communications, 2020).

Columns and labels:
[1] = test system: Mouse cortical neurons (E16.5); assay: Micro Electrode Array (MEA) recording of neuronal firing; format: cell-based
Procedure: We assessed the cytotoxicity of compound 2a, measuring survival of Neuro2a cells exposed to increasing 2a concentrations. […] We next checked for toxic effects of compound 2a in primary neuronal cultures coupled with Micro Electrode Array (MEA) devices. Mouse cortical neurons (E16.5) were plated on MEAs, kept in culture for 14 days to develop firing activity and recorded in presence of 2a.
Primary neuronal cultures were established from the cerebral cortex of E16.5 C57BL6J embryos. Upon dissection, cells were plated on MEA biochips (60 electrode MEA biochips with 200 µm electrode spacing and 30 µm electrodes diameter with an integrated reference electrode, Multichannel Systems GmbH) at the density of 3 × 10^5 cells/MEA and kept in Neurobasal medium supplemented with B27 for 14 days. At day 14 neuronal cultures were exposed to increasing concentration of compound 2a (1, 3, 10, 30, and 100 µM) in Krebs–Ringer–Hepes buffer (KRH, 130 mM NaCl, 5 mM KCl, 1.2 mM KH2PO4, 1.2 mM MgSO4, 2 mM CaCl2, 25 mM Hepes, 0.6% glucose, 1% glutamine, Sigma–Aldrich). Firing activity was recorded using a pre-amplifier stage (MEA-1060-Inv-BC-Standard, gain: 55, bandwidth: 300 Hz–8 kHz, MCS GmbH), an amplification and filtering stage (FA64S, gain 20, bandwidth: 10 Hz–8 kHz, MCS GmbH) and a data acquisition device (sampling frequency: 25 kHz). Then, off-line signal processing was performed, and raw data were analyzed by MC-Rack Software version 4.6.2 (MCS GmbH).
Panels a and b; neuronal activityfrom the same electrode of a representative MEA biochip (3x105 cortical neurons/chip, n=5 independent chips from 2 independent experiments) treated with 2a, at the concentration of 1 µM (a) and 100 µM (b). Neurons received increasing amounts of lead 2a (1,3, 10, 30 and 100 µM) and were recorded every 5 min; c, quantifications of the firing activityreported as fold changes of spike numbers (box plots show median values; whiskers show 10-90 percentile) measured at the concentration of 1
µM. Kruskal-Wallis testfollowed by Dunn’s multiple comparison test was used to analyze the […]

[2] = target: VPS35 (Mus musculus, UniProt Q9EQH3+Q9QZ88); assay: Western blot for VPS35 in spinal cord extracts of treated C57BL6J mice; format: in vivo; set-up: from tissue; host or cells: mouse (lumbar) spinal cord, motor neurons; details: 10 mg/Kg intraperitoneally daily, 1 week
Procedure: Compounds 2a, 4a, and standard R55/1 (10 mg/Kg) were intraperitoneally injected in C57BL6J mice daily. After 1 week, mice were sacrificed, saline perfused to avoid CNS contamination by compounds in blood circulation, and SC protein extracts were assayed by WB. […] Therefore, phenyl-1,3-bis-guanylhydrazone 2a was selected as an early lead.

[3] = test system: Vps35, Vps26, and Vps29 mRNAs; assay: Real-time PCR of CRC genes in Neuro2a cells; format: cell-based; details: 10 μM, 48 h
Source text: Lumbar spinal tracts dissected from saline-perfused mice or Neuro2A cells were lysed to extract total RNAs using the RNeasy Mini Kit (Qiagen) according to the manufacturer’s recommendations, including DNase (Promega) digestion. We synthetized the cDNA using ThermoScript RT-PCR System (Invitrogen) and Random Hexamer (Invitrogen), according to the manufacturer’s instructions. The LightCycler 480 System (Roche) and LightCycler 480 SYBR Green I Master Mix (Roche) were used for real-time PCR experiments. Normalization was obtained using the housekeeping gene Histone H3:
Compound 2a stabilizes VPS35 levels in Neuro2a cells
A cycloheximide (CHX) chase assay was performed to determine the degradation rate of VPS35 in Neuro2a cells (3x10^5 cells/well). Cells were treated with vehicle or 2a (10 µM) for 24 h, and then chased with CHX (10 µg/mL) for 2, 4 and 8h.
WBs for VPS35 and β-Actin levels. Quantifications of normalized VPS35 levels (means normalized ratios ± SEM versus the time 0) are shown inpanel b (vehicle: n=10 independent wells, 2a: n=8 independent wells obtained from 3 independent experiments; control vs. 2a at 8 hours: p=0.009). c, quantitative real time PCR for Vps35, Vps26 and Vps29 mRNA (Vps35: controls n=8 independent wells; 2a: n=9 independent wells; Vps26 and Vps29: n=9 independent wells/group); data were collected from 3 independent experiments. […]

NC(N)=N/N=C/c1cccc(/C=N/N=C(N)N)c1 [compound 2a, phenyl-1,3-bis-guanylhydrazone]
neuronal firing ([1]; 10µM): does not perturb neuronal firing
neuronal firing (spikes) ([1]; 100 μM of 2a): slight reduction of spikes
neuronal firing ([1]; low concentrations of 2a): did not alter neuronal firing
VPS35 levels in SC extracts [2]: significantly increased
transcription levels of CRC genes (Vps35, Vps26, Vps29 mRNAs) [3]: did not influence
